This is an account of results in article PMC6264295, “Studies on Log Po/w of Quinoxaline di-N-Oxides: A Comparison of RP-HPLC Experimental and Predictive Approaches” (Molecules, 2011).

SMILES strings stand for the structures.

A short description of data set [1]: RP-HPLC determination of capacity factors and log Po/w (Supelcosil LC-ABZ, MOPS buffer pH 7.4/methanol). The following applies: for log k’0: capacity factor extrapolated to 0% methanol; for RP-HPLC log Po/w: from log k’0 by Equation (1); for Capacity factors log k’40: 40% methanol; for Capacity factors log k’40 / Capacity factors log k’50 / Capacity factors log k’60 / Capacity factors log k’70: MOPS buffer pH 7.4; for Capacity factors log k’50: 50% methanol; for Capacity factors log k’60: 60% methanol; for Capacity factors log k’70: 70% methanol; for Capacity factors log k’0: extrapolated to 0% methanol; for chromatographic logP: pH 7.4, RP-HPLC log Po/w. As to the method:
The RP-HPLC methods of Minick and Lombardo [53] were considered for estimating the n-octanol/water partition coefficients (log Po/w) of QdO. The inorganic salts and the reference compounds were, at least, of analytical grade (Sigma Aldrich and Fluka) and used without further purification. HPLC-grade methanol, n-octanol (Sigma-Aldrich) and bi-distilled water were used to prepare the mobile phase.
The other chromatographic conditions were: flow 1.0 mL/min^−1; isocratic elution, UV-visible detector set at the wavelength with maximum absorbance (260 and 210 nm). The test solutions were 0.3 mM in the desired compound. All the experiments were performed at 25 ± 2 °C at least twice.
The capacity factors were calculated according to Equation (2): […]
In order to judge if the experimentally measured log k’0 can be used to predict the log Po/w value, a calibration curve was created with the capacity factors of the reference compounds and a linear regression equation between the log Po/w and log k’0 was determined.
The robustness of the model and its predictivity were evaluated by the leave-one-out (LOO) cross-validation procedure. According to this procedure, the log Po/w value of each compound in the reference data set is predicted by the equations derived from all the other compounds except the predicted one. At the end of this procedure two values are available for each reference compound, the reference shake-flask log Po/w value (yi) and the predicted one (ŷi). […] The regression coefficient (R^2LOO) is defined by Equation (5): [drawing 8] (5) where [drawing 9] is the mean of the reference shake-flask log Po/w value and n is the number of reference compounds. A high value of R^2LOO indicates a good predictive ability of the model. The root mean squared error in prediction (RMSELOO) is calculated with Equation (6): [drawing 10] (6)

On the set-up of data set [2]: method as in earlier work. Conditions: reduction peak potential; cited from earlier work.
Setting [3] is: reference compounds, leave-one-out cross-validation.

Consider `Nc1ccccc1` [Compound 2, Aniline, reference compound], for which the “log k’0” value in data set [1] (reference compounds, pH 7.4) is 0.67. In data set [1] (reference compounds), the “RP-HPLC log Po/w” value stood at 0.94. Further, in data set [1] (setting [3]), the “LOO-predicted RP-HPLC log Po/w” value was 0.96.
On to `CC(=O)Nc1ccccc1` [Compound 3, Acetanilide, reference compound], for which the “LOO-predicted RP-HPLC log Po/w” value in data set [1] (pH 7.4) is listed as 1.19. Besides, the “log k’0” value in data set [1] (reference compounds, pH 7.4) is recorded as 0.88. For the same compound, the “RP-HPLC log Po/w” value in data set [1] (reference compounds) stood at 1.15.
In the same order, the values of `CC(=O)c1ccccc1` [Compound 4, Acetophenone, reference compound] are 1.52, 1.27 and 1.54.
Turning to `c1ccccc1` [Compound 5, Benzene, reference compound], in data set [1] (reference compounds, pH 7.4), the “log k’0” value is 1.87. In data set [1] (reference compounds), the “RP-HPLC log Po/w” value turned out to be 2.14.
Turning to `Clc1ccccc1` [Compound 6, Chlorobenzene, reference compound], the “log k’0” value in data set [1] (reference compounds, pH 7.4) is 2.62. Moreover, the “RP-HPLC log Po/w” value in data set [1] (reference compounds) was 2.89. In addition, the “LOO-predicted RP-HPLC log Po/w” value in data set [1] (setting [3]) is listed as 2.90.
On to `Brc1ccccc1` [Compound 7, Bromobenzene, reference compound], for which the “log k’0” value in data set [1] (reference compounds, pH 7.4) was 2.84.
As to `c1ccc2ccccc2c1` [Compound 8, Naphthalene, reference compound], in data set [1] (reference compounds, pH 7.4), the “log k’0” value is on record as 3.15. Moreover, the “RP-HPLC log Po/w” value in data set [1] (reference compounds) was determined as 3.42.
As for `Cc1c(C(=O)NCc2ccccc2)[n+]([O-])c2ccccc2[n+]1[O-]` [Compound 10], in data set [1], the “Capacity factors log k’40” value amounted to 0.28, the “Capacity factors log k’50” value is listed as −0.05, the “Capacity factors log k’60” value is reported as −0.34 and the “Capacity factors log k’70” value is on record as −0.64. The chromatographic logP in data set [1] is 1.76. For the same compound, the “Capacity factors log k’0” value in data set [1] (pH 7.4) is recorded as 1.49.
In the case of `Cc1ccc2c(c1)[n+]([O-])c(C(=O)NCc1ccccc1)c(C)[n+]2[O-]` [Compound 11], in data set [1], the “Capacity factors log k’40” value is on record as 0.35, the “Capacity factors log k’50” value is 0.07, the “Capacity factors log k’60” value is given as −0.24 and the “Capacity factors log k’70” value is −0.56. In data set [1], the chromatographic logP is 1.85. In addition, the “Capacity factors log k’0” value in data set [1] (pH 7.4) is on record as 1.58. Also, the “Epc,1” value in data set [2] is −1.658.
In the case of `Cc1c(C(=O)NCc2ccccc2)[n+]([O-])c2cc(Cl)ccc2[n+]1[O-]` [Compound 12], in data set [1], the “Capacity factors log k’40” value came out at 0.65, the “Capacity factors log k’50” value came to 0.30, the “Capacity factors log k’60” value was −0.05 and the “Capacity factors log k’70” value is listed as −0.36. For the same compound, the chromatographic logP in data set [1] was found to be 2.25. For the same compound, the “Capacity factors log k’0” value in data set [1] (pH 7.4) is given as 1.98. Moreover, the “Epc,1” value in data set [2] was −1.482.
With `Cc1c(C(=O)NCc2ccccc2)[n+]([O-])c2cc(Cl)c(Cl)cc2[n+]1[O-]` [Compound 13], in data set [1], the “Capacity factors log k’40” value came out at 0.98, the “Capacity factors log k’50” value is reported as 0.66, the “Capacity factors log k’60” value was determined as 0.27 and the “Capacity factors log k’70” value is given as −0.11. For the same compound, the chromatographic logP in data set [1] is 2.72. For the same compound, the “Capacity factors log k’0” value in data set [1] (pH 7.4) is listed as 2.46. In addition, in data set [2], the “Epc,1” value is −1.211.
For the compound `Cc1c(C(=O)NCCc2ccccc2)[n+]([O-])c2ccccc2[n+]1[O-]` [Compound 14], in data set [1], the “Capacity factors log k’40” value is 0.36, the “Capacity factors log k’50” value is listed as 0.05, the “Capacity factors log k’60” value is reported as −0.26 and the “Capacity factors log k’70” value is reported as −0.58. Moreover, the chromatographic logP in data set [1] was 1.88. In addition, the “Capacity factors log k’0” value in data set [1] (pH 7.4) is reported as 1.61. The “Epc,1” value in data set [2] is listed as −1.625.
`Cc1ccc2c(c1)[n+]([O-])c(C(=O)NCCc1ccccc1)c(C)[n+]2[O-]` [Compound 15]: in data set [1], the “Capacity factors log k’40” value stood at 0.47, the “Capacity factors log k’50” value is on record as 0.21, the “Capacity factors log k’60” value is −0.13 and the “Capacity factors log k’70” value is −0.45. Besides, the chromatographic logP in data set [1] stood at 2. Besides, in data set [1] (pH 7.4), the “Capacity factors log k’0” value is listed as 1.73. The “Epc,1” value in data set [2] is −1.649.
On to `Cc1c(C(=O)NCCc2ccccc2)[n+]([O-])c2cc(Cl)ccc2[n+]1[O-]` [Compound 16], for which, in data set [1], the “Capacity factors log k’40” value came out at 0.69, the “Capacity factors log k’50” value is 0.36, the “Capacity factors log k’60” value is 0.00 and the “Capacity factors log k’70” value is recorded as −0.37. Further, in data set [1], the chromatographic logP is 2.38. For the same compound, the “Capacity factors log k’0” value in data set [1] (pH 7.4) is listed as 2.11. Further, in data set [2], the “Epc,1” value is recorded as −1.525.
Regarding `Cc1c(C(=O)NCCc2ccccc2)[n+]([O-])c2cc(Cl)c(Cl)cc2[n+]1[O-]` [Compound 17], in data set [1], the “Capacity factors log k’40” value is given as 1.07, the “Capacity factors log k’50” value was found to be 0.74, the “Capacity factors log k’60” value is listed as 0.34 and the “Capacity factors log k’70” value was −0.06. The compound further had a chromatographic logP in data set [1] of 2.87. Also, in data set [1] (pH 7.4), the “Capacity factors log k’0” value is 2.60. Moreover, in data set [2], the “Epc,1” value was −1.387.
`Cc1c(C(=O)NCc2ccc(Br)cc2)[n+]([O-])c2ccccc2[n+]1[O-]` [Compound 18]: in data set [1], the “Capacity factors log k’40” value came to 0.85, the “Capacity factors log k’50” value was 0.48, the “Capacity factors log k’60” value turned out to be 0.11 and the “Capacity factors log k’70” value was −0.24. Further, the chromatographic logP in data set [1] came to 2.57. In data set [1] (pH 7.4), the “Capacity factors log k’0” value is 2.30. In addition, in data set [2], the “Epc,1” value is on record as −1.540.
On to `Cc1ccc2c(c1)[n+]([O-])c(C(=O)NCc1ccc(Br)cc1)c(C)[n+]2[O-]` [Compound 19], for which, in data set [1], the “Capacity factors log k’40” value is recorded as 0.94, the “Capacity factors log k’50” value is 0.60, the “Capacity factors log k’60” value came to 0.21 and the “Capacity factors log k’70” value was −0.16. In data set [1], this compound registered a chromatographic logP of 2.69. Also, the “Capacity factors log k’0” value in data set [1] (pH 7.4) is 2.43. In addition, the “Epc,1” value in data set [2] is −1.580.
Consider `Cc1c(C(=O)NCc2ccc(Br)cc2)[n+]([O-])c2cc(Cl)ccc2[n+]1[O-]` [Compound 20], for which, in data set [1], the “Capacity factors log k’40” value amounted to 1.22, the “Capacity factors log k’50” value is reported as 0.84, the “Capacity factors log k’60” value is reported as 0.42 and the “Capacity factors log k’70” value was 0.02. In data set [1], this compound had a chromatographic logP of 3.09. Besides, the “Capacity factors log k’0” value in data set [1] (pH 7.4) is 2.83. The “Epc,1” value in data set [2] is recorded as −1.445.
In the case of `Cc1c(C(=O)NCc2ccc(Br)cc2)[n+]([O-])c2cc(Cl)c(Cl)cc2[n+]1[O-]` [Compound 21], in data set [1], the “Capacity factors log k’40” value is 1.60, the “Capacity factors log k’50” value turned out to be 1.15, the “Capacity factors log k’60” value was 0.65 and the “Capacity factors log k’70” value stood at 0.19. The same compound registered a chromatographic logP in data set [1] of 3.78. For the same compound, the “Capacity factors log k’0” value in data set [1] (pH 7.4) is reported as 3.51. The “Epc,1” value in data set [2] was −1.363.
With `Cc1ccc(CNC(=O)c2c(C)[n+]([O-])c3ccccc3[n+]2[O-])cc1` [Compound 22], in data set [1], the “Capacity factors log k’40” value is 0.62, the “Capacity factors log k’50” value is given as 0.25, the “Capacity factors log k’60” value was −0.10 and the “Capacity factors log k’70” value is on record as −0.44. Further, the chromatographic logP in data set [1] came out at 2.29. In data set [1] (pH 7.4), the “Capacity factors log k’0” value is 2.02. For the same compound, the “Epc,1” value in data set [2] is reported as −1.580.
Regarding `Cc1ccc(CNC(=O)c2c(C)[n+]([O-])c3ccc(C)cc3[n+]2[O-])cc1` [Compound 23], in data set [1], the “Capacity factors log k’40” value stood at 0.66, the “Capacity factors log k’50” value is 0.34, the “Capacity factors log k’60” value is −0.01 and the “Capacity factors log k’70” value is −0.36. The chromatographic logP in data set [1] came out at 2.29. Also, the “Capacity factors log k’0” value in data set [1] (pH 7.4) is given as 2.02. In addition, the “Epc,1” value in data set [2] was −1.590.
Take `Cc1ccc(CNC(=O)c2c(C)[n+]([O-])c3ccc(Cl)cc3[n+]2[O-])cc1` [Compound 24]: in data set [1], the “Capacity factors log k’40” value stood at 0.93, the “Capacity factors log k’50” value was 0.54, the “Capacity factors log k’60” value was found to be 0.15 and the “Capacity factors log k’70” value is recorded as −0.25. In data set [1], this compound displayed a chromatographic logP of 2.77. Further, in data set [1] (pH 7.4), the “Capacity factors log k’0” value was 2.51. For the same compound, in data set [2], the “Epc,1” value was −1.489.
As to `Cc1ccc(CNC(=O)c2c(C)[n+]([O-])c3cc(Cl)c(Cl)cc3[n+]2[O-])cc1` [Compound 25], in data set [1], the “Capacity factors log k’40” value is reported as 1.33, the “Capacity factors log k’50” value is given as 0.93, the “Capacity factors log k’60” value is 0.54 and the “Capacity factors log k’70” value was 0.14. The same compound showed a chromatographic logP in data set [1] of 3.18. In addition, the “Capacity factors log k’0” value in data set [1] (pH 7.4) is on record as 2.91.
With `Cc1c(C(=O)NCC(c2ccccc2)c2ccccc2)[n+]([O-])c2ccccc2[n+]1[O-]` [Compound 26], in data set [1], the “Capacity factors log k’40” value is 1.06, the “Capacity factors log k’50” value was found to be 0.62, the “Capacity factors log k’60” value is listed as 0.14 and the “Capacity factors log k’70” value is on record as −0.33. Also, the chromatographic logP in data set [1] stood at 3.18. Moreover, in data set [1] (pH 7.4), the “Capacity factors log k’0” value is listed as 2.92. For the same compound, the “Epc,1” value in data set [2] was −1.591.
